In US11395847B2, “Acylated GLP-1/GLP-2 dual agonists” (Zealand Pharma A/S, priority 2016, dated 2022):
Where two headings read alike, the source gives them in different places. Where a SMILES comes first, the peptide text is derived from it.

How the values were obtained:
human GLP-2 receptor = molecular target: T1, human GLP-2 receptor (Homo sapiens, UniProt O95838, D470N); test: GLP-2 receptor potency assay (cAMP ALPHASCREEN, HEK293 cells stably expressing GLP-2 R); format: cell-based; settings: cAMP response, HEK293 cells expressing human GLP-2 R; read-out: EC50 GLP-2
T1 construct: expressed in transfected cells
T1 sequence (O95838 1-553 D470N): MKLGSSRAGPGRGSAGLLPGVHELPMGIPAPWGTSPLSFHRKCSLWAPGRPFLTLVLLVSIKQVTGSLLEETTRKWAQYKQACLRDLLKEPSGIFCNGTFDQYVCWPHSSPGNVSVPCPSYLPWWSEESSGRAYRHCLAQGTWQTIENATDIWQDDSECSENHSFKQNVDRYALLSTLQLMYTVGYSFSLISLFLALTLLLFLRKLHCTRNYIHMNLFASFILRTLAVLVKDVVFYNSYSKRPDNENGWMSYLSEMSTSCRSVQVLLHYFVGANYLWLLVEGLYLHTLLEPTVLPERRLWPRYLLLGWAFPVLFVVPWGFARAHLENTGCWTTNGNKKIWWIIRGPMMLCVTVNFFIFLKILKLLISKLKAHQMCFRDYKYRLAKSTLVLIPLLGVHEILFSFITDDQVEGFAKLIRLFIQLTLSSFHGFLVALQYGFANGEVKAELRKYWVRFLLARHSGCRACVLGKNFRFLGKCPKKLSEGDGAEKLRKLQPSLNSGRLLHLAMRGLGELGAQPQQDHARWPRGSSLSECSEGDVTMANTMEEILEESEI
How it was run: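 HEK293 clones stably transfected with the human GLP-2 receptor, selected with G418, were used. Intracellular cAMP was quantified by AlphaScreen. Responses were normalised to positive and vehicle controls, and EC50 and maximal response were taken from concentration-response curves.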

[1] = system: Normal chow-fed C57BL/6J male mice; test: Effect on fasting glucose and intestinal weight in normal mice; format: in vivo; settings: for Small intestinal wet weight: 100 nmol/kg s.c. once daily for 4 days, sacrificed 24 hours after final dosing; for Fasting blood glucose: 100 nmol/kg s.c., day 0 after a single injection, fasted mice
Protocol: Normal chow-fed C57BL/6J male mice were used. The mice were kept in standard housing conditions, light-, temperature-, and humidity-controlled room (12:12 h light-dark cycle, with lights on at 06.00-18.00 h; 20-22° C.; 50-80% relative humidity). Each dosing group consisted of 6 animals. Mice were dosed once daily with 100 nmol/kg with the test compounds or vehicle for 4 days via subcutaneous administration.
On day 0 mice were fasted and blood glucose levels measured after a single s.c. injection with peptides. Animals were sacrificed 24 hours after final dosing on day 3, and small intestinal wet weights were measured.

[2] = Solubility assessment (turbidity absorbance at 325 nm); format: physicochemical
How it was run: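 Peptide stock at 2 mg/ml in water at pH 2.5 diluted 1:1 into 100 mM acetate (pH 4.0, 5.0), histidine (pH 6.0, 7.0) or phosphate (pH 6.0, 7.0, 7.5) buffer. Absorbance at 280 and 325 nm read at ambient temperature (typically 25 °C), single samples (n=1).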

[3] = Chemical stability (RP-HPLC normalized purity after incubation at 40° C.); format: physicochemical; settings: 14-day incubation, 0.2 mg/ml, normalized purity (area-%)
How it was run: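 Peptide at 0.2 mg/ml final in water adjusted to pH 6, 7, 7.5 or 9, incubated at 40° C for 14 days. Purity measured as main-peak area-% by C18 RP-HPLC (acetonitrile/TFA/water gradient, UV 220 nm) and normalized to T=0 set at 100 for each pH.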

human GLP-1 receptor = molecular target: T2, human GLP-1 receptor (Homo sapiens, UniProt P43220); test: GLP-1 receptor potency assay (cAMP ALPHASCREEN, HEK293 cells stably expressing GLP-1 R); format: cell-based; settings: cAMP response, HEK293 cells expressing human GLP-1 R
T2 construct: expressed in transfected cells
T2 sequence (P43220 24-463): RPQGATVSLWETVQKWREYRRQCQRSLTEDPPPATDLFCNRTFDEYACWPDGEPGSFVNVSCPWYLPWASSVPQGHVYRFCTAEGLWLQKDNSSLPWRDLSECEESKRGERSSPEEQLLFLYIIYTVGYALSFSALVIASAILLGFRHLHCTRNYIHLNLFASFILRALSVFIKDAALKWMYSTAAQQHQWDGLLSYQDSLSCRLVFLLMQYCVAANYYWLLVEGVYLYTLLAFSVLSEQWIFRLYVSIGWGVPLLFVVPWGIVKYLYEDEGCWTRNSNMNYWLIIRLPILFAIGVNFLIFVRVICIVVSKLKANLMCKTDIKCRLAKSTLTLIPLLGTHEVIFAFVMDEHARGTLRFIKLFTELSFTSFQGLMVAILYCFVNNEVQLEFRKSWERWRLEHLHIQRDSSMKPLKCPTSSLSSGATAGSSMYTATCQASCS
How it was run: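 Clonal HEK293 line stably transfected with human GLP-1R (G418-selected) was treated with test compounds and the cAMP response quantified by ALPHASCREEN. Signals were normalized to positive control and vehicle, with EC50 and maximal response taken from concentration-response curves.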

EC50 (human GLP-2 receptor) [nM]	solubility ([2]; 100 mM acetate buffer pH 4.0, ambient temperature, read-out: Solubility Acetate buffer pH 4) [µg/mL]	solubility ([2]; 100 mM acetate buffer pH 5.0, ambient temperature, read-out: Solubility Acetate buffer pH 5) [µg/mL]	solubility ([2]; 100 mM histidine buffer pH 6.0, ambient temperature, read-out: Solubility Histidine buffer pH 6) [µg/mL]	solubility ([2]; 100 mM histidine buffer pH 7.0, ambient temperature, read-out: Solubility Histidine buffer pH 7) [µg/mL]	solubility ([2]; 100 mM phosphate buffer pH 6.0, ambient temperature, read-out: Solubility Phosphate buffer pH 6) [µg/mL]	solubility ([2]; 100 mM phosphate buffer pH 7.0, ambient temperature, read-out: Solubility Phosphate buffer pH 7) [µg/mL]	solubility ([2]; 100 mM phosphate buffer pH 7.5, ambient temperature, read-out: Solubility Phosphate buffer pH 7.5) [µg/mL]	pH 6 normalized stability ([3]; pH 6, 40° C.)	pH 7 normalized stability ([3]; pH 7, 40° C.)	EC50 (human GLP-1 receptor) [nM]	SMILES	Small intestinal wet weight [1] [g]	Fasting blood glucose [1] [mM]
0.056	–	–	–	–	–	–	–	–	–	–	CC[C@H](C)[C@H](NC(=O)[C@H](Cc1ccccc1)NC(=O)[C@H](CC(=O)O)NC(=O)[C@H](CCCNC(=N)N)NC(=O)[C@H](C)NC(=O)[C@H](C)NC(=O)[C@H](CCCCNC(=O)CC[C@H](NC(=O)CCCCCCCCCCCCCCCCC(=O)O)C(=O)O)NC(=O)CNC(=O)[C@H](CC(=O)O)NC(=O)[C@H](CC(C)C)NC(=O)[C@@H](NC(=O)[C@@H](NC(=O)[C@H](C)NC(=O)[C@H](CC(C)C)NC(=O)[C@H](CCC(=O)O)NC(=O)[C@H](CO)NC(=O)[C@@H](NC(=O)[C@H](Cc1ccccc1)NC(=O)[C@@H](NC(=O)CNC(=O)[C@H](CCC(=O)O)NC(=O)C(C)(C)NC(=O)[C@@H](N)Cc1c[nH]cn1)[C@@H](C)O)[C@@H](C)O)[C@@H](C)O)[C@@H](C)CC)C(=O)N[C@@H](C)C(=O)N[C@@H](Cc1c[nH]c2ccccc12)C(=O)N[C@@H](CC(C)C)C(=O)N[C@H](C(=O)N[C@@H](CCC(=O)O)C(=O)N[C@@H](Cc1c[nH]cn1)C(=O)N[C@@H](CCCCN)C(=O)N[C@H](C(=O)N[C@H](C(=O)N[C@@H](CC(=O)O)C(=O)O)[C@@H](C)O)[C@@H](C)CC)[C@@H](C)CC [Compound 9] (HELM PEPTIDE1{H.[Aib].E.G.T.F.T.S.E.L.A.T.I.L.D.G.K.A.A.R.D.F.I.A.W.L.I.E.H.K.I.T.D}|PEPTIDE2{[O=C(O)CCCCCCCCCCCCCCCCC(=O)[*:2]].[gGlu]}$PEPTIDE1,PEPTIDE2,17:R3-2:R2$$$V2.0)	1.11	4.98
–	< 1000	< 1000	≥ 1000	≥ 1000	≥ 1000	≥ 1000	≥ 1000	A (>90% normalised stability)	A (>90% normalised stability)	–	CC[C@H](C)[C@H](NC(=O)[C@H](Cc1ccccc1)NC(=O)[C@H](CC(=O)O)NC(=O)[C@H](CCCNC(=N)N)NC(=O)[C@H](C)NC(=O)[C@H](C)NC(=O)[C@H](CCC(N)=O)NC(=O)[C@H](CCCCNC(=O)CC[C@H](NC(=O)CCCCCCCCCCCCCCCCC(=O)O)C(=O)O)NC(=O)[C@H](CC(=O)O)NC(=O)[C@H](CC(C)C)NC(=O)[C@@H](NC(=O)[C@@H](NC(=O)[C@H](C)NC(=O)[C@H](CC(C)C)NC(=O)[C@H](CCC(=O)O)NC(=O)[C@H](CO)NC(=O)[C@@H](NC(=O)[C@H](Cc1ccccc1)NC(=O)[C@H](CO)NC(=O)CNC(=O)[C@H](CCC(=O)O)NC(=O)C(C)(C)NC(=O)[C@@H](N)Cc1c[nH]cn1)[C@@H](C)O)[C@@H](C)O)[C@@H](C)CC)C(=O)N[C@@H](C)C(=O)N[C@@H](Cc1c[nH]c2ccccc12)C(=O)N[C@@H](CC(C)C)C(=O)N[C@H](C(=O)N[C@@H](CCC(N)=O)C(=O)N[C@@H](Cc1c[nH]cn1)C(=O)N[C@@H](CCCCN)C(=O)N[C@H](C(=O)N[C@H](C(=O)N[C@@H](CC(=O)O)C(=O)O)[C@@H](C)O)[C@@H](C)CC)[C@@H](C)CC [Compound 18] (HELM PEPTIDE1{H.[Aib].E.G.S.F.T.S.E.L.A.T.I.L.D.K.Q.A.A.R.D.F.I.A.W.L.I.Q.H.K.I.T.D}|PEPTIDE2{[O=C(O)CCCCCCCCCCCCCCCCC(=O)[*:2]].[gGlu]}$PEPTIDE1,PEPTIDE2,16:R3-2:R2$$$V2.0)	1.37	5.26
0.056	–	–	–	–	–	–	–	–	–	0.31	CC[C@H](C)[C@H](NC(=O)[C@H](Cc1ccccc1)NC(=O)[C@H](CC(=O)O)NC(=O)[C@H](CCCNC(=N)N)NC(=O)[C@H](C)NC(=O)[C@H](C)NC(=O)[C@H](CCC(N)=O)NC(=O)[C@H](CCCCNC(=O)COCCOCCNC(=O)[C@H](CCCCN)NC(=O)[C@H](CCC(=O)O)NC(=O)[C@H](CCCCN)NC(=O)CC[C@H](NC(=O)CCCCCCCCCCCCCCCCCCC(=O)O)C(=O)O)NC(=O)[C@H](CC(=O)O)NC(=O)[C@H](CC(C)C)NC(=O)[C@@H](NC(=O)[C@@H](NC(=O)[C@H](C)NC(=O)[C@H](CC(C)C)NC(=O)[C@H](CCC(=O)O)NC(=O)[C@H](CO)NC(=O)[C@H](CO)NC(=O)[C@H](Cc1ccccc1)NC(=O)[C@@H](NC(=O)CNC(=O)[C@H](CCC(=O)O)NC(=O)C(C)(C)NC(=O)[C@@H](N)Cc1c[nH]cn1)[C@@H](C)O)[C@@H](C)O)[C@@H](C)CC)C(=O)N[C@@H](C)C(=O)N[C@@H](Cc1c[nH]c2ccccc12)C(=O)N[C@@H](CC(C)C)C(=O)N[C@H](C(=O)N[C@@H](CCC(=O)O)C(=O)N[C@@H](Cc1c[nH]cn1)C(=O)N[C@@H](CCCCN)C(=O)N[C@H](C(=O)N[C@H](C(=O)N[C@@H](CC(=O)O)C(=O)O)[C@@H](C)O)[C@@H](C)CC)[C@@H](C)CC [Compound 50] (HELM PEPTIDE1{H.[Aib].E.G.T.F.S.S.E.L.A.T.I.L.D.K.Q.A.A.R.D.F.I.A.W.L.I.E.H.K.I.T.D}|PEPTIDE2{[O=C(O)CCCCCCCCCCCCCCCCCCC(=O)[*:2]].[gGlu].K.E.K.[O=C(COCCOCCN[*:1])[*:2]]}$PEPTIDE1,PEPTIDE2,16:R3-6:R2$$$V2.0)	1.43	5.57
